The values that follow come from US10730905B2, “Substituted heteropentadieno-pyrrolopyrimidine ribonucleosides for therapeutic use” (USTAV ORGANICKE CHEMIE A BIOCHEMIE AV CR, V.V.I., priority 2016, dated 2020).

Data set [1] deals with HCT116p53 wt (human colorectal cancer, wild-type). The data set can be described thus: MTT cytotoxic test, HCT116. Format: cell-based. As to conditions: HCT-116, HCT116 cells, p53 wild type. The text has this:
(§1) MTT test (Nosková V. et al., Neoplasma 2002, 49, 418-425) was used for in vitro evaluation of antitumor activities of newly synthesized compounds on cell lines derived from normal tissues or tumors. Specifically, cell lines K562 (human acute myeloid leukemia); K562-Tax (human acute myeloid leukemia, paclitaxel resistant subline, overexpress multiple drug resistant protein PgP); CEM (T-lymfoblastic leukemia); CEM-DNR-bulk (T-lymfoblastic leukemia, doxorubicin resistant); A549 (human lung adenocarcinoma); HCT116p53 wt (human colorectal cancer, wild-type); HCT116p53−/− (human colorectal cancer, mutant p53) a U2OS (human bone osteosarcoma) were used. Express characteristics, susceptibility profiles of classic antitumor drugs as well as methodology of cytotoxic MTT test have been repeatedly published (Denizot, F.; Lang, R., J. Immunol. Meth. 1986, 89, 271-277; Noskova, V., see above; S̆arek J. et al., J, Med. Chem., 2003).

For data set [2], the system named is HCT116p53−/− (human colorectal cancer, mutant p53). Kind of data set: MTT cytotoxic test, HCT116p53. As to conditions: HCT116p53 cells (p53 −/−). Format: cell-based.
Excerpt: as §1

Data set [3] concerns CEM-DNR-bulk (T-lymfoblastic leukemia, doxorubicin resistant). Kind of data set: MTT cytotoxic test, CEM-DNR. Format: cell-based. As to conditions: Homo sapiens, CEM-DNR cells.
Excerpt: as §1

The test system of data set [4] is K562 (human acute myeloid leukemia). Kind of data set: MTT cytotoxic test, K562. Format: cell-based. The settings on record: K562 cells.
Excerpt: as §1

The subject of data set [5] is A549 (human lung adenocarcinoma). The data set can be described thus: MTT cytotoxic test, A549. Format: cell-based. The settings on record: A549 cells.
Excerpt: as §1

The nature of data set [6]: MTT cytotoxic test, MRC-5. Format: cell-based. As to conditions: MRC-5 cells (normal fibroblasts), MRC-5 normal human fibroblasts.
The test system of data set [7] is U2OS (human bone osteosarcoma). Kind of data set: MTT cytotoxic test, U2OS. Format: cell-based. The settings on record: U2OS cells.
Excerpt: as §1

In data set [8] the test system is K562-Tax (human acute myeloid leukemia, paclitaxel resistant subline). The data set can be described thus: MTT cytotoxic test, K562-TAX. The settings on record: K562-TAX cells. Format: cell-based.
Excerpt: as §1

The test system of data set [9] is CCRF-CEM (CEM, T-lymfoblastic leukemia). Kind of data set: MTT cytotoxic test, CCRF-CEM. The settings on record: Homo sapiens, CCRF-CEM cells. Format: cell-based.
Excerpt: as §1

The compound `CSc1ncnc2c1c1occc1n2[C@@H]1O[C@H](CO)[C@@H](O)[C@H]1O` [Compound 1c] gave a melting point of 213 to 217 °C. Further, the IC50 in data set [1] fell in the range of 0.2 to 0.9 µM. Also, the IC50 in data set [2] was 0.2 to 0.9 µM. In data set [3], this compound yielded an IC50 of 0.9 to 10 µM. The same compound returned an IC50 in data set [4] of 0.2 to 0.9 µM. In addition, the IC50 in data set [5] lay in the range of 0.9 to 10 µM. For the same compound, in data set [6], the IC50 lay in the range of 0.9 to 10 µM. Also, in data set [7], the IC50 was in the range of 0.2 to 0.9 µM. The compound further showed an IC50 in data set [8] of 0.9 to 10 µM. In addition, in [9], the IC50 lay within 0.2 to 0.9 µM.

With `Cn1ccc2c1c1c(-c3ccoc3)ncnc1n2[C@@H]1O[C@H](CO)[C@@H](O)[C@H]1O` [Compound 2f, 4-(Furan-3-yl)-5-methyl-8-(β-D-ribofuranosyl)-5,8dihydropyrrolo[2′,3′:4,5]pyrrolo[2,3-d]pyrimidine], the melting point was 202 to 207 °C. The compound also returned an IC50 in data set [1] of 25 to 50 µM. This compound also displayed an IC50 in [2] of 0.9 to 10 µM. Further, the IC50 in [3] was in the range of 25 to 50 µM. Moreover, in data set [4], the IC50 is 0.9 to 10 µM. For the same compound, the IC50 in [5] fell in the range of 25 to 50 µM. Moreover, in data set [6], the IC50 is 25 to 50 µM. Besides, the IC50 in data set [7] was 0.9 to 10 µM. Moreover, the IC50 in [8] was 25 to 50 µM. For the same compound, the IC50 in data set [9] fell in the range of 25 to 50 µM.

`Cn1ccc2c1c1c(Cl)ncnc1n2[C@@H]1O[C@H](CO)[C@@H](O)[C@H]1O` [Compound 2i, 4-chloro-5-methyl-8-(β-D-ribofuranosyl)-5,8-dihydropyrrolo[2′,3′:4,5]pyrrolo[2,3-d]pyrimidine] displayed a melting point of 217 to 219 °C. The IC50 in [1] was in the range of 0.01 to 0.2 µM. The same compound returned an IC50 in data set [2] of 0.01 to 0.2 µM. For the same compound, in data set [3], the IC50 is 25 to 50 µM. The same compound had an IC50 in data set [4] of 0.01 to 0.2 µM. The IC50 in [5] lay in the range of 0.9 to 10 µM. This compound yielded an IC50 in data set [6] of 25 to 50 µM. In addition, in [7], the IC50 was in the range of 0.9 to 10 µM. The compound also came in with an IC50 in data set [8] of 25 to 50 µM. Further, the IC50 in data set [9] lay in the range of 0.01 to 0.2 µM.
